Experimental data from patent US4216221A, “1,3-Disubstituted (2-thio)ureas” (U C B, Societe Anonyme, priority 1977, dated 1980).
Read-outs that look alike come from different tables or passages of the source.

Key:
[1] = Toxicity by intraperitoneal administration (Irwin's test); format: in vivo; settings: for Dose mg/kg (dose which brings about the death of one animal out of eight in Irwin's test): mouse
Description: The compounds tested have a remarkably low toxicity.
*Dose which brings about the death of one animal out of eight in Irwin's
test (S. IRWIN, Gordon Research Conference on Medicinal Chemistry, Colby
Junior College, New London, 1959).

[2] = Protection against aggressions of the hypoxic type (mortality induced by oxydipentonium chloride); format: in vivo, mice; settings: Mus musculus, ip, 1 h, mice, intraperitoneal, one hour before the curarizer, 2/10 (28), read-out: Proportion of survivors, Animals treated; for responders at 100 µM, 100 µmol/kg: 0.1 mM/kg, control animals 3/20 (1), 1/10 (2, 18, 26), 0/10 (14, 32); for responders at 320 µM, 320 µmol/kg: 0.32 mM/kg, control animals 1/10 (18), 0/10 (32, piracetam)
Protocol: Protection against aggressions of the hypoxic type was shown by a reduction of mortality induced by a curarizer, the action time of which is short, namely oxydipentonium chloride (Brevatonal). At the doses used, this curarizer brings about respiratory depression which, in turn, gives rise to a hypoxi-hypercapnic syndrome.
A compound capable of protecting the brain during this short period of hypoxia ensures survival. The compounds are administered to groups of 10 mice one hour before the injection of the curarizer. At the same time, a control group of 10 mice received physiological salt solution before the curarizer. This test has also been developed in our laboratories (see S. LEVIS et al., Arch.Int.Pharmacodyn.Therap.93, (1953,no. 1), 46-54).

[3] = active avoidance test (memory retention; paw withdrawal reaction threshold); format: in vivo, rat; settings: sc, rat, subcutaneous, tested 24 hours later
Description: The pressure at which the withdrawal reaction takes place is called the reaction threshold. This threshold is expressed by the figure read on a scale graduated in cm of the apparatus used (Analgesy-meter Ugo Basile, Milan) and thus corresponds to the minimum pressure which brings about withdrawal when applied to the animal's paw.

[4] = read-out: Active dose mM/kg (minimum dose lowering the stimulus below 11 graduations; mM = millimole)
[5] = read-out: Active dose mg/kg (minimum dose lowering the stimulus below 11 graduations)

| Compound | Dose mM/kg - mouse (dose which brings about the death of one animal out of eight in Irwin's test) [1] | Dose mg/kg (dose which brings about the death of one animal out of eight in Irwin's test) [1] | responders at 100 µM, 100 µmol/kg [2] | responders at 320 µM, 320 µmol/kg [2] | minimal effective dose [3, 4] | minimal effective dose [3, 5] |
| --- | --- | --- | --- | --- | --- | --- |
| CCCCC1CCN(CNC(=O)NCN2CCC(CCCC)C2=O)C1=O (centres unmarked) [compound 30, 1,3-bis[(3-n-butyl-2-oxo-pyrrolidino)methyl]-urea] | > 3 mM/kg | > 10009.5 mg/kg | – | – | – | – |
| O=C(NC(c1ccccc1)N1CCCC1=O)NC(c1ccccc1)N1CCCC1=O (stereo not drawn) [compound 19, 1,3-bis[alpha-(2-oxo-pyrrolidino)-benzyl]-urea] | > 3 mM/kg | > 1219 mg/kg | – | – | – | – |
| CC1CC2(CCCCC2)C(=O)N1CNC(=O)NCN1C(=O)C2(CCCCC2)CC1C (centres unmarked) [compound 17, 1,3-bis[(3-methyl-1-oxo-2-azaspiro[4.5]dec-2-yl)methyl]-urea] | 3 mM/kg | 1255.8 mg/kg | – | – | – | – |
| O=C(NCN1CCCCCCCC1=O)NCN1CCCC1=O [Compound No. 29, 1-[(octahydro-2-oxo-1H-azonin-1-yl)methyl]-3-[(2-oxo-pyrrolidino)methyl]-urea] | 2 mM/kg | 620 mg/kg | – | – | – | – |
| O=C(NCN1C(=O)CCC1c1ccccc1)NCN1C(=O)CCC1c1ccccc1 (centres unmarked) [Compound No. 9, 1,3-bis[(2-oxo-5-phenyl-pyrrolidino)methyl]-urea] | 1 mM/kg | 406 mg/kg | – | – | – | – |
| CC1CC(C)(C)N(CNC(=O)NCN2C(=O)C(C)CC2(C)C)C1=O (centres unmarked) [compound 18, 1,3-bis[(3,5,5-trimethyl-2-oxo-pyrrolidino)methyl]-urea] | 2 mM/kg | 676.8 mg/kg | 20% | 60% | – | – |
| CC1CC(=O)N(CNC(=O)NCN2C(=O)CC(C)C2C)C1C (centres unmarked) [compound 14, 1,3-bis[(4,5-dimethyl-2-oxo-pyrrolidino)methyl]-urea] | > 3 mM/kg | 930 mg/kg | 50% | – | 10 µmol/kg | 3.1 mg/kg |
| CCC(NC(=O)NC(CC)N1CCCC1=O)N1CCCC1=O (centres unmarked) [Compound No. 10, 1,3-bis[1-(2-oxo-pyrrolidino)propyl]-urea] | > 3 mM/kg | > 930 mg/kg | – | – | – | – |
| O=C(NCN1CC(c2ccc(Cl)cc2)CCC1=O)NCN1CC(c2ccc(Cl)cc2)CCC1=O (centres unmarked) [compound 16, 1,3-bis[(5-p-chlorophenyl-2-oxo-piperidino)methyl]-urea] | > 3 mM/kg | 1510.2 mg/kg | – | – | – | – |
| C=CCC1(c2ccccc2)CCN(CNC(=O)NCN2CCC(CC=C)(c3ccccc3)C2=O)C1=O (centres unmarked) [compound 15, 1,3-bis[(3-allyl-2-oxo-3-phenyl-pyrrolidino)methyl]-urea] | > 3 mM/kg | 1459.5 mg/kg | – | – | 1 µmol/kg | 0.486 mg/kg |
| O=C(NCN1CC(c2ccccc2)CC1=O)NCN1CC(c2ccccc2)CC1=O (centres unmarked) [compound 12, 1,3-bis[(2-oxo-4-phenyl-pyrrolidino)methyl]-urea] | > 3 mM/kg | 1215 mg/kg | – | – | – | – |
| O=C(NCN1CCCCCCC1=O)NCN1CCCC1=O [compound 33, 1-[(hexahydro-2-oxo-1(2H)-azocinyl)methyl]-3-[(2-oxo-pyrrolidino)methyl]-urea] | > 3 mM/kg | > 888 mg/kg | – | – | 5 µmol/kg | 1.48 mg/kg |
| O=C(NCN1CCCCCC1=O)NCN1CCCC1=O [compound 32, 1-[(hexahydro-2-oxo-1H-azepin-1-yl)methyl]-3-[(2-oxo-pyrrolidino)methyl]-urea] | > 3 mM/kg | > 846 mg/kg | 30% | 60% | – | – |
| CCCCC1CCN(CNC(=S)NCN2CCC(CCCC)C2=O)C1=O (centres unmarked) [compound 27, 1,3-bis[(3-n-butyl-2-oxo-pyrrolidino)methyl]-2-thiourea] | – | – | – | – | 0.01 µmol/kg | 0.0038 mg/kg |
| O=C1CCCCCN1CNC(=S)NCN1CCCC1=O [compound 28, 1-[(hexahydro-2-oxo-1H-azepin-1-yl)methyl]-3-[(2-oxo-pyrrolidino)methyl]-2-thiourea] | 3 mM/kg | 894 mg/kg | 20% | 70% | – | – |
| CC(CNC(=O)NCC(C)N1CCCC1=O)N1CCCC1=O (centres unmarked) [compound 21, 1,3-bis[2-(2-oxo-pyrrolidino)propyl]-urea] | > 3 mM/kg | > 930 mg/kg | – | – | 0.01 µmol/kg | 0.0031 mg/kg |
| O=C(NCN1CCCCCCCC1=O)NCN1CCCCCCCC1=O [Compound No. 6, 1,3-bis[(octahydro-2-oxo-1H-azonin-1-yl)methyl]-urea] | > 3 mM/kg | 1099.5 mg/kg | – | – | 5 µmol/kg | 1.83 mg/kg |
| O=C(NCN1CCCCCCC1=O)NCN1CCCCCCC1=O [Compound No. 5, 1,3bis[(hexahydro-2-oxo-1(2H)-azocinyl)methyl]-urea] | 3 mM/kg | 1004 mg/kg | – | – | 1 µmol/kg | 0.338 mg/kg |
| CCCCC1CCN(CNC(=S)NCN2CCC(CCCC)C2=O)C1=O (centres unmarked) [compound 26, 1,3-bis[(3-n-butyl-2-oxo-pyrrolidino)methyl]-2-thiourea] | > 2 mM/kg | > 765.2 mg/kg | 70% | – | – | – |
| CCC1(c2ccccc2)CCN(CNC(=O)NCN2CCC(CC)(c3ccccc3)C2=O)C1=O (centres unmarked) [compound 13, 1,3-bis[(3-ethyl-2-oxo-3-phenyl-pyrrolidino)methyl]-urea] | > 3 mM/kg | 1387.5 mg/kg | – | – | – | – |
| CC1(C)CCC(=O)N1CNC(=O)NCN1C(=O)CCC1(C)C [compound 35, 1,3bis[(5,5-dimethyl-2-oxo-pyrrolidine)methyl]-urea] | > 3 mM/kg | > 930 mg/kg | – | – | 0.02 µmol/kg | 0.0062 mg/kg |
| O=C1CCCN1CNC(=S)NCN1CCCC1=O [compound 25, 1,3-bis[(2-oxo-pyrrolidino)methyl]-2-thiourea] | > 3 mM/kg | > 804 mg/kg | – | – | 1 µmol/kg | 0.268 mg/kg |
| CC1CC2(CCCCC2)C(=O)N1CNC(=O)NCN1CCCC1=O (centres unmarked) [compound 31, 1-[(3-methyl-1-oxo-azaspiro[4.5]dec-2-yl)methyl]-3-[(2-oxo-pyrrolidino)-methyl]-urea] | 2 mM/kg | 672.8 mg/kg | – | – | – | – |
| O=C1CCCCCN1CNC(=S)NCN1CCCCCC1=O [compound 36, 1,3-bis[(hexahydro-2-oxo-1H-azepin-1-yl)methyl]-2-thiourea] | – | – | – | – | 0.2 µmol/kg | 0.065 mg/kg |
| O=C(NCCCN1CCCC1=O)NCN1CCCC1=O [Compound No. 2, 1-[(2-oxo-pyrrolidino)methyl]-3-[3-(2-oxo-pyrrolidino)propyl]-urea] | > 3 mM/kg | > 846 mg/kg | 60% | – | – | – |
| O=C(NCN1CCCCC1=O)NCN1CCCCC1=O [Compound No. 3, 1,3-bis[(2-oxo-piperidino)methyl]-urea] | – | – | – | – | 0.2 µmol/kg | 0.056 mg/kg |
